Active and inactive are the calls of the source. The calls are words filed in the database; no cut-off is given here.
How the values were obtained:
Assay type in all cases: functional, cell-based
CCRF-CEM [1] = assay: Cytotoxicity was evaluated against CEM tumor cell lines; Inactive; conditions: Homo sapiens
NIH3T3 [2] = assay: Cytotoxicity was evaluated against NIH3T3 tumor cell lines; Inactive; conditions: Mus musculus
Jurkat = assay: In vitro test for antitumor activity against human Jurkat cell line using a formazan dye (MTT) conversion assay.
NCI-H596 [3] = assay: Cytotoxicity was evaluated against H596 tumor cell lines; Inactive; conditions: Homo sapiens
A549 [4] = assay: Cytotoxicity was evaluated against A549 tumor cell lines; Inactive; conditions: Homo sapiens
HL-60 [5] = assay: Cytotoxicity was evaluated against HL-60 tumor cell lines; Inactive; conditions: Homo sapiens
MOLT-4 [6] = assay: Cytotoxicity was evaluated against Molt-4 tumor cell lines; Inactive; conditions: Homo sapiens
MCF7 [7] = assay: Cytotoxicity was evaluated against MCF-7 tumor cell lines; Inactive; conditions: Homo sapiens
B16 [8] = assay: Cytotoxicity was evaluated against B16 tumor cell lines; Inactive; conditions: Mus musculus
NCI-H292 [9] = assay: Cytotoxicity was evaluated against H292 tumor cell lines; Inactive; conditions: Homo sapiens
WI-38 [10] = assay: Cytotoxicity was evaluated against WI38 tumor cell lines; Inactive; conditions: Homo sapiens
L1210 [11] = assay: Cytotoxicity was evaluated against L1210 tumor cell lines; Inactive; conditions: Mus musculus
K562 [12] = assay: Cytotoxicity was evaluated against K562 tumor cell lines; Inactive; conditions: Homo sapiens
WIL2 [13] = assay: Cytotoxicity was evaluated against WIL2 tumor cell lines; Inactive; conditions: Homo sapiens
WI-38 [14] = assay: Cytotoxicity was evaluated against WI38 tumor cell lines; Slightly active; conditions: Homo sapiens
A549 [15] = assay: Cytotoxicity was evaluated against A549 tumor cell lines; Slightly active; conditions: Homo sapiens
MCF7 [16] = assay: Cytotoxicity was evaluated against MCF-7 tumor cell lines; Slightly active; conditions: Homo sapiens
WIL2 [17] = assay: Cytotoxicity was evaluated against WIL2 tumor cell lines; Slightly active; conditions: Homo sapiens
B16 [18] = assay: Cytotoxicity was evaluated against B16 tumor cell lines; Slightly active; conditions: Mus musculus
K562 [19] = assay: Cytotoxicity was evaluated against K562 tumor cell lines; Slightly active; conditions: Homo sapiens
L1210 [20] = assay: Cytotoxicity was evaluated against L1210 tumor cell lines; Slightly active; conditions: Mus musculus
HL-60 [21] = assay: Cytotoxicity was evaluated against HL-60 tumor cell lines; Slightly active; conditions: Homo sapiens
CCRF-CEM [22] = assay: Cytotoxicity was evaluated against CEM tumor cell lines; Slightly active; conditions: Homo sapiens
NCI-H596 [23] = assay: Cytotoxicity was evaluated against H596 tumor cell lines; Slightly active; conditions: Homo sapiens
MOLT-4 [24] = assay: Cytotoxicity was evaluated against Molt-4 tumor cell lines; Slightly active; conditions: Homo sapiens
NCI-H292 [25] = assay: Cytotoxicity was evaluated against H292 tumor cell lines; Slightly active; conditions: Homo sapiens
NIH3T3 [26] = assay: Cytotoxicity was evaluated against NIH3T3 tumor cell lines; Slightly active; conditions: Mus musculus

**Q.** For `COc1cc2c(cc1OC)C(=O)/C(=C/c1ccc(O)c(C(=O)O)c1)CC2`, which Cytotoxicity (CCRF-CEM [1]) is on record?
**A.** inactive

**Q.** What about the Cytotoxicity (NIH3T3 [2]) of the same compound?
**A.** inactive

**Q.** What about the IC50 (Jurkat) of the same compound?
**A.** > 50 µM

**Q.** What about the Cytotoxicity (NCI-H596 [3]) of the same compound?
**A.** inactive

**Q.** And the Cytotoxicity (A549 [4])?
**A.** inactive

**Q.** What about the Cytotoxicity (HL-60 [5]) of the same compound?
**A.** inactive

**Q.** And the Cytotoxicity (MOLT-4 [6])?
**A.** inactive

**Q.** And the Cytotoxicity (MCF7 [7])?
**A.** inactive

**Q.** And the Cytotoxicity (B16 [8])?
**A.** inactive

**Q.** And the Cytotoxicity (NCI-H292 [9])?
**A.** inactive

**Q.** What about the Cytotoxicity (WI-38 [10]) of the same compound?
**A.** inactive

**Q.** What about the Cytotoxicity (L1210 [11]) of the same compound?
**A.** inactive

**Q.** And the Cytotoxicity (K562 [12])?
**A.** inactive

**Q.** What about the Cytotoxicity (WIL2 [13]) of the same compound?
**A.** inactive

**Q.** Which Cytotoxicity (CCRF-CEM [1]) does the source give for `COc1cc2c(cc1OC)C(=O)/C(=C/c1cccc(OC)c1OC)CC2` here?
**A.** inactive

**Q.** What about the Cytotoxicity (NIH3T3 [2]) of the same compound?
**A.** inactive

**Q.** What about the IC50 (Jurkat) of the same compound?
**A.** > 50 µM

**Q.** What about the Cytotoxicity (NCI-H596 [3]) of the same compound?
**A.** inactive

**Q.** What about the Cytotoxicity (A549 [4]) of the same compound?
**A.** inactive

**Q.** What about the Cytotoxicity (HL-60 [5]) of the same compound?
**A.** inactive

**Q.** And the Cytotoxicity (MOLT-4 [6])?
**A.** inactive

**Q.** And the Cytotoxicity (MCF7 [7])?
**A.** inactive

**Q.** And the Cytotoxicity (B16 [8])?
**A.** inactive

**Q.** And the Cytotoxicity (NCI-H292 [9])?
**A.** inactive

**Q.** And the Cytotoxicity (WI-38 [10])?
**A.** inactive

**Q.** What about the Cytotoxicity (L1210 [11]) of the same compound?
**A.** inactive

**Q.** And the Cytotoxicity (K562 [12])?
**A.** inactive

**Q.** And the Cytotoxicity (WIL2 [13])?
**A.** inactive

**Q.** `COc1cc2c(c(N)c1O)C/C(=C\c1cc(C)c(O)c(C)c1)C2=O` was tested. Which Cytotoxicity (WI-38 [14]) did it give?
**A.** Weak activity

**Q.** What about the Cytotoxicity (A549 [15]) of the same compound?
**A.** Weak activity

**Q.** And the IC50 (Jurkat)?
**A.** 30 µM

**Q.** What about the Cytotoxicity (MCF7 [16]) of the same compound?
**A.** Weak activity

**Q.** And the Cytotoxicity (WIL2 [17])?
**A.** Weak activity

**Q.** What about the Cytotoxicity (B16 [18]) of the same compound?
**A.** Weak activity

**Q.** What about the Cytotoxicity (K562 [19]) of the same compound?
**A.** Weak activity

**Q.** What about the Cytotoxicity (L1210 [20]) of the same compound?
**A.** Weak activity

**Q.** And the Cytotoxicity (HL-60 [21])?
**A.** Weak activity

**Q.** And the Cytotoxicity (CCRF-CEM [22])?
**A.** Weak activity

**Q.** What about the Cytotoxicity (NCI-H596 [23]) of the same compound?
**A.** Weak activity

**Q.** What about the Cytotoxicity (MOLT-4 [24]) of the same compound?
**A.** Weak activity

**Q.** What about the Cytotoxicity (NCI-H292 [25]) of the same compound?
**A.** Weak activity

**Q.** What about the Cytotoxicity (NIH3T3 [26]) of the same compound?
**A.** Weak activity

**Q.** `COc1cc2c(cc1OC)C(=O)/C(=C/c1cc(C)ccc1C)C2` was tested. Which Cytotoxicity (WI-38 [14]) did it give?
**A.** Weak activity

**Q.** And the Cytotoxicity (A549 [15])?
**A.** Weak activity

**Q.** And the IC50 (Jurkat)?
**A.** 30.5 µM

**Q.** And the Cytotoxicity (MCF7 [16])?
**A.** Weak activity

**Q.** And the Cytotoxicity (WIL2 [17])?
**A.** Weak activity

**Q.** And the Cytotoxicity (B16 [18])?
**A.** Weak activity

**Q.** What about the Cytotoxicity (K562 [19]) of the same compound?
**A.** Weak activity

**Q.** And the Cytotoxicity (L1210 [20])?
**A.** Weak activity

**Q.** And the Cytotoxicity (HL-60 [21])?
**A.** Weak activity

**Q.** And the Cytotoxicity (CCRF-CEM [22])?
**A.** Weak activity

**Q.** And the Cytotoxicity (NCI-H596 [23])?
**A.** Weak activity

**Q.** What about the Cytotoxicity (MOLT-4 [24]) of the same compound?
**A.** Weak activity

**Q.** And the Cytotoxicity (NCI-H292 [25])?
**A.** Weak activity

**Q.** And the Cytotoxicity (NIH3T3 [26])?
**A.** Weak activity

**Q.** For `COc1ccc2c(c1)C(=O)/C(=C/c1cc(C)c(O)c(C)c1)C2`, which Cytotoxicity (CCRF-CEM [1]) is on record?
**A.** inactive

**Q.** What about the Cytotoxicity (NIH3T3 [2]) of the same compound?
**A.** inactive

**Q.** And the IC50 (Jurkat)?
**A.** > 50 µM

**Q.** What about the Cytotoxicity (NCI-H596 [3]) of the same compound?
**A.** inactive

**Q.** And the Cytotoxicity (A549 [4])?
**A.** inactive

**Q.** And the Cytotoxicity (HL-60 [5])?
**A.** inactive

**Q.** And the Cytotoxicity (MOLT-4 [6])?
**A.** inactive

**Q.** And the Cytotoxicity (MCF7 [7])?
**A.** inactive

**Q.** What about the Cytotoxicity (B16 [8]) of the same compound?
**A.** inactive

**Q.** And the Cytotoxicity (NCI-H292 [9])?
**A.** inactive

**Q.** What about the Cytotoxicity (WI-38 [10]) of the same compound?
**A.** inactive

**Q.** What about the Cytotoxicity (L1210 [11]) of the same compound?
**A.** inactive

**Q.** What about the Cytotoxicity (K562 [12]) of the same compound?
**A.** inactive

**Q.** What about the Cytotoxicity (WIL2 [13]) of the same compound?
**A.** inactive

**Q.** How did the Cytotoxicity (CCRF-CEM [1]) turn out when `COc1ccccc1/C=C1\CCc2cc(OC)c(OC)cc2C1=O` was run?
**A.** inactive

**Q.** What about the Cytotoxicity (NIH3T3 [2]) of the same compound?
**A.** inactive

**Q.** What about the IC50 (Jurkat) of the same compound?
**A.** > 50 µM

**Q.** And the Cytotoxicity (NCI-H596 [3])?
**A.** inactive

**Q.** And the Cytotoxicity (A549 [4])?
**A.** inactive

**Q.** And the Cytotoxicity (HL-60 [5])?
**A.** inactive

**Q.** What about the Cytotoxicity (MOLT-4 [6]) of the same compound?
**A.** inactive

**Q.** What about the Cytotoxicity (MCF7 [7]) of the same compound?
**A.** inactive

**Q.** And the Cytotoxicity (B16 [8])?
**A.** inactive

**Q.** And the Cytotoxicity (NCI-H292 [9])?
**A.** inactive

**Q.** And the Cytotoxicity (WI-38 [10])?
**A.** inactive

**Q.** And the Cytotoxicity (L1210 [11])?
**A.** inactive

**Q.** And the Cytotoxicity (K562 [12])?
**A.** inactive

**Q.** What about the Cytotoxicity (WIL2 [13]) of the same compound?
**A.** inactive

**Q.** How did the Cytotoxicity (CCRF-CEM [1]) turn out when `COc1ccc(/C=C2\CCc3cc(OC)c(OC)cc3C2=O)cc1OC` was run?
**A.** inactive

**Q.** And the Cytotoxicity (NIH3T3 [2])?
**A.** inactive

**Q.** What about the IC50 (Jurkat) of the same compound?
**A.** > 50 µM

**Q.** And the Cytotoxicity (NCI-H596 [3])?
**A.** inactive

**Q.** And the Cytotoxicity (A549 [4])?
**A.** inactive

**Q.** And the Cytotoxicity (HL-60 [5])?
**A.** inactive

**Q.** What about the Cytotoxicity (MOLT-4 [6]) of the same compound?
**A.** inactive

**Q.** What about the Cytotoxicity (MCF7 [7]) of the same compound?
**A.** inactive

**Q.** What about the Cytotoxicity (B16 [8]) of the same compound?
**A.** inactive

**Q.** What about the Cytotoxicity (NCI-H292 [9]) of the same compound?
**A.** inactive

**Q.** And the Cytotoxicity (WI-38 [10])?
**A.** inactive

**Q.** And the Cytotoxicity (L1210 [11])?
**A.** inactive

**Q.** And the Cytotoxicity (K562 [12])?
**A.** inactive

**Q.** What about the Cytotoxicity (WIL2 [13]) of the same compound?
**A.** inactive

**Q.** For `COc1ccc(/C=C2\CCc3cc(OC)c(OC)cc3C2=O)c(OC)c1`, which Cytotoxicity (CCRF-CEM [1]) is on record?
**A.** inactive

**Q.** What about the Cytotoxicity (NIH3T3 [2]) of the same compound?
**A.** inactive

**Q.** And the IC50 (Jurkat)?
**A.** > 50 µM

**Q.** What about the Cytotoxicity (NCI-H596 [3]) of the same compound?
**A.** inactive

**Q.** And the Cytotoxicity (A549 [4])?
**A.** inactive

**Q.** And the Cytotoxicity (HL-60 [5])?
**A.** inactive

**Q.** And the Cytotoxicity (MOLT-4 [6])?
**A.** inactive

**Q.** And the Cytotoxicity (MCF7 [7])?
**A.** inactive

**Q.** And the Cytotoxicity (B16 [8])?
**A.** inactive

**Q.** And the Cytotoxicity (NCI-H292 [9])?
**A.** inactive

**Q.** What about the Cytotoxicity (WI-38 [10]) of the same compound?
**A.** inactive

**Q.** What about the Cytotoxicity (L1210 [11]) of the same compound?
**A.** inactive

**Q.** What about the Cytotoxicity (K562 [12]) of the same compound?
**A.** inactive

**Q.** And the Cytotoxicity (WIL2 [13])?
**A.** inactive
